Test results: patent US20230181678A1, “NOVEL ANTIBACTERIAL PEPTIDE OR PEPTIDE ANALOG AND USE THEREOF” (CAMP THERAPEUTICS INC., priority 2020, published 2023)
* marks the point of attachment. Octanoyl = CCCCCCCC(=O)*

What was measured:
[1] = system: E.c. ATCC 25922, A.b. ATCC 17978, K.p. ATCC 700603, P.a. ATCC 27853, or CRE (E.c. NDM-1, K.p. NDM-1, or K.p. KPC); assay: MIC assay, comparison with L9P on rifampicin or colistin; assay type: cell-based; conditions: FIGS. 9 and 10
Description: (§1) All MIC assay experiments were performed using the Clinical and Laboratory Standards Institute (CLSI) guidelines (Clinical & Laboratory Standards Institute: CLSI Guidelines, 2017). Bacterial cells cultured overnight were diluted to 0.05 McFarland standard using McFarland (KIT […] PLUS INSTRUMENT, Biomerieux) in Muller Hinton II Broth (cation-adjusted) (Difco). The cells were inoculated at 1.5×10^5 CFU per 200 μL solution of each well in a 96-well plate. The peptide and the antibiotic were prepared using 2-fold serially diluted concentrations. […] Incubation was performed at 37° C. for 18 hours, and then absorbance was measured at 600 nm using an EPOCH2 microplate reader (BioTek, Winooski, USA) to calculate a MIC value. The MIC value was defined as a concentration of the antibiotic or peptide at which bacterial growth was inhibited to a level of lower than 10% growth of the positive control. Fold reduction was calculated using the following expression.
(§2) ATCC 25922, A.b. ATCC 17978, K.p. ATCC 700603, and P.a. ATCC 27853, or CRE (E.c. NDM-1, K.p. NDM-1, or K.p. KPC) (FIGS. 9 and 10).

A. baumannii 801 = assay: Immunosuppressed mouse pneumonia infection survival model; assay type: in vivo
Description: To induce neutropenia in 6-week-old female ICR (CD-1) mice weighing 23 g to 27 g (Orient Bio, Seongnam, Korea), the mice were treated (subcutaneously injected) with 150 mg/kg and 100 mg/kg of cyclophosphamide (CP), respectively, 4 days and 1 day before pneumonia infection. For a mouse model for survival analysis, the mice were infected intranasally with 1×10^8 CFU A. baumannii 801; and for a mouse model for colony number counting, the mice were infected intranasally with 1×10^6 CFU A. baumannii 801.
The sensitizing peptide CMP1401 of the present disclosure was administered by intraperitoneal injection 4 times daily for 2 days (25 mg/kg QID). Six mice were used per each group.

E. coli ATCC 25922 = assay: MIC assay, sensitizing effect of peptide on antibacterial agents; assay type: cell-based
Description: as §1
Fold reduction=MIC of antibiotic alone/MIC of antibiotic in presence of sensitizing peptide
Using the same MIC assay method as in Example 1, sensitizing effects of the peptide L9P (CMP1107, 1 ug/ml), which is known as a conventional sensitive AMP, and CMP1401 (1 ug/ml) were compared on existing antibacterial agents against E. coli ATCC 25922 (FIG. 5A).
In addition, MIC screening was used to compare sensitizing effects of the competitive drug SPR741 and the peptide CMP1401 or CMP1501 on the existing antibacterial agents against E. coli ATCC 25922 (FIGS. 5B and 5C). SPR741, which is a previously known polymyxin B (PMB) analog, is a sensitive AMP, and is a drug that has been identified through preclinical experiments to be effective against Gram-negative bacteria in a case of being used together with existing Gram-positive antibiotics.
as §2

K.p. KPC = assay: MIC assay, sensitizing effect of peptide on rifampicin or colistin (CRE); assay type: cell-based, Klebsiella pneumoniae; conditions: peptide 4 ug/ml
Description: as §1, §2

Kp NDM-1 = assay: MIC assay, sensitizing effect of peptide on rifampicin (CRE); assay type: cell-based, Klebsiella pneumoniae; conditions: FIG. 9F; Kp NDM-1 (CRE); peptide 4 ug/ml
Description: as §1, §2

“OctA-KKALKLAKKPLKLLK-NH2 (Octanoyl-KKALKLAKKPLKLLK-NH2) [CMP1401]” was tested, and the “sensitizing effect on rifampicin or colistin compared with L9P” value [1] was “very good sensitizing effect”, the survival rate (A. baumannii 801; 2.5 mg/kg of rifampicin and 25 mg/kg of CMP1401 (intraperitoneal, QID) co-administered) was 50% and the “survival rate higher than rifampicin alone” value (A. baumannii 801; 2.5 mg/kg rifampicin + 25 mg/kg CMP1401 vs 2.5 mg/kg rifampicin alone) was “about 33.3%”. The “survival / antibacterial activity, peptide administered alone” value (A. baumannii 801; CMP1401 administered alone) was “all mice died”, the “Decreased MIC value of rifampicin at peptide concentration of 4 ug/ml” value (shortened to “Decreased MIC value of rifampicin”) (E. coli ATCC 25922; FIG. 9A, E.c. ATCC 25922, peptide 4 ug/ml) was 2 ng/mL and the “Decreased MIC value of colisitin at peptide concentration of 4 ug/ml” value (E. coli ATCC 25922; FIG. 10A, E.c. ATCC 25922, peptide 4 ug/ml) was 7.8 ng/mL. For the same substance, the “sensitizing effect on existing antibacterial agents compared with SPR741” value (E. coli ATCC 25922; FIGS. 5B and 5C) was “almost the same or much better sensitizing effect”, the “sensitizing effect compared with SPR741 at half its concentration” value (E. coli ATCC 25922; peptide concentration decreased by half as compared with SPR741, FIG. 5C) was “equal or superior effect” and the “sensitizing effect on existing antibacterial agents compared with L9P” value (E. coli ATCC 25922; peptides 1 ug/ml, FIG. 5A) was “very good sensitizing effect”. For the same substance, the “Decreased MIC value of rifampicin” value (K.p. KPC; FIG. 9G) was 7.8 ng/mL, the “Decreased MIC value of colisitin at peptide concentration of 4 ug/ml” value (K.p. KPC; FIG. 10C) was 250 ng/mL and the “Decreased MIC value of rifampicin” value (Kp NDM-1) was 7.8 ng/mL.
